{
  "source": "patent US5872141A",
  "about": "“Method of inhibiting cholesterol transport” (priority 1997, dated 1999)",
  "key": {"IEC-6 cells [1]": {"test_system": "IEC-6 cells", "experiment": "Specific steroid uptake from TDC-DMPC micelles by IEC-6 cells", "type": "cell-based, rat", "experimental": "There was less than 15% variation between duplicates. Under these conditions of incubation the monolayer remained intact.\nReferring to FIG. 1, monolayers on 12 well plates of IEC-6 cells were incubated for the indicated times at 37° C. with ^3 H-cholesterol (.circle-solid.), ^14 C-sitosterol (o), or ^3 H-cholesteryl oleate (.tangle-solidup.) in TDC-DMPC micelles as described above. The concentration (75 μM) and specific activity of the steroid was the same in all three conditions. After the desired incubation period, the media was removed, the monolayers were washed, the cells solubilized, and the amount of radioactivity incorporated into the cells was determined and plotted as counts per minute in the cells. […] At 60 minutes the cholesterol content of the cells was 2.7 times the sitosterol. Since sitosterol is closely related to cholesterol both chemically and physically, this indicated a biologically specific uptake. […] Thus, the IEC-6 cells were able to absorb specifically cholesterol from the mixed micelles."}, "[2]": {"experiment": "Uptake of micellar steroid from isolated duodenum into mucosal homogenate", "type": "in vivo, rat", "experimental": "Fifty Wistar male rats were anesthetized with phenobarbital and a celiotomy was performed. The duodenum was isolated with ligatures of umbilical tape at the pylorus and the ligament of Treitz. One ml of a suspension of micelles containing ^3 H-cholesterol and ^14 C-sitosterol together with taurodeoxycholate (TDC) and dimyristic phosphatidyl choline (DMPC) (Safonova et al. 1994) were injected into the isolated duodenum of each rat. Following ten minutes incubation in the duodenum the gut loop was excised. The duodenum was opened lengthwise with iris scissors and mucosal contents were vigorously washed in two changes of 0.15M NaCl, 20 mM Hepes solution (pH 7.5). The mucosa was scraped free with a glass microscope slide and homogenized in a Virtis homogenizer for 5 minutes and 12 strokes in a Potter-Elvehjeim homogenizer as previously described (Conrad et al. 1993). […] Membranes were collected by centrifugation at 20,000×g for 20 minutes. Membrane proteins were extracted overnight at 4° C. in 1% Triton X 100 20 mM Hepes pH 7.5. The suspension was centrifuged at 20,000×g for 20 minutes. The solubilized material (70 ml) contained 70% of the radiolabeled cholesterol. The solubilized material was applied to a 240 ml column of DE-92 (Whatmann) equilibrated in 20 mM Hepes, 1% Triton X 100 pH 7.5 and eluted with a saline gradient. […]"}, "IEC-6 cells [3]": {"test_system": "IEC-6 cells", "conditions": "32 mM levamisole, 60 minutes at 37° C., 20-60% sucrose gradient, FIG. 5", "protocol": "Two petri dishes (7.5 cm) with monolayers of IEC-6 cells were grown to confluence and used for each experiment. Each plate was washed in PBS and then incubated with 3 ml of PBS containing 120 μl of cholesterol micelles. In two parallel petri dishes an identical incubation was performed but with the addition of 32 mM levamisole. After 60 minutes incubation the dishes were chilled, washed four times with cold PBS and then harvested by scraping the dishes into 8 ml of 10 mM Hepes, 10 mM NaCl pH 7.4. The cells were homogenized using a Tissue-Tearor (Biospec Products, Bartlettsville, Okla.) at full speed for 30 seconds×3. The homogenate was layered on top of a 26 ml linear sucrose gradient from 20-60% (w/w). Centrifugation was performed over 18-20 hours at 19,000 rpm with a S-20 rotor in a Sorvall RC28S (DuPont, Wilmington, Del.) centrifuge. The tubes were punched from the bottom and 1 ml fractions collected. Standard methods were used to identify the membrane fractions (Storrie & Madden 1990) utilizing p-nitrophenyl-sugars and spectrophotometric analysis.\nReferring to FIG. 4, IEC-6 cells were incubated with ^3 H-cholesterol micelles for 60 minutes at 37° C., and then washed, homogenized, and separated on 20-60% sucrose gradients. The gradients were centrifuged to equilibrium. The location of various membrane fragments was determined by standard enzymatic methods (Storrie & Madden 1990). […]"}, "alkaline phosphatase": {"test_system": "alkaline phosphatase", "conditions": "levamisole 58 mM, pH 8.5, 30 minutes at 37° C., IEC-6 homogenate, FIG. 2", "experimental": "An incubation mixture of […] was prepared containing 0.1 ml of 500 mM Hepes pH 8.5, 25 mM MgCl2, 2.5 μM ZnCl2, and 0.5 ml of homogenate [1.0 mg/ml protein as determined by BCA method (Pierce, Rockford, Ill.)]. The indicated amount of p-nitrophenyl phosphate was added and the incubation allowed to proceed for 30 minutes at 37° C. To some of the tubes levamisole (58 mM) was added. After the incubation the absorption at 412 nm was determined."}, "IEC-6 cells [4]": {"test_system": "IEC-6 cells", "conditions": "increasing concentrations of levamisole, 30 minutes at 37° C., FIG. 3", "protocol": "Radioisotopes were obtained from NEN (Billerca, Mass.) and other chemicals from Sigma (St. Louis, Mo.). ^3 H-cholesterol micelles were prepared from dimyristic phosphatidyl choline (DMPC) and taurodeoxycholate (TDC) as described by others (Safanova et al. 1994). The final solution contained 2.2×10^6 cpm/ml, 0.1 μM cholesterol, 60 mM DMPC and 6.5 mM TDC. Micelles with ^14 C-sitosterol or ^3 H-cholesteryl oleate were similarly prepared using the appropriate steroid and had the same specific activity. IEC-6 cells (Quaroni et al. 1979) obtained from the American Type Culture Collection (12301 Parklawn Drive, Rockville, Md.) were grown to confluence on 12-well Corning tissue culture plates. The media was removed and the monolayers were washed with phosphate buffered saline containing calcium, magnesium, and glucose (PBS). One ml of PBS was added to each well and 40 μl of the micellar solution (for a final steroid concentration of 4 nM). After incubation at 37° C., the plates were chilled and the wells washed four times in cold PBS. Water (0.5 ml) was added, and the plates were sonicated for 15 minutes (Branson model B-220, Shelton, Conn.) and then washed in an additional 0.5 ml of water. The water lysates were combined and counted in Ready-Safe (Beckman, Fullerton, Calif.) scintillation fluid. There was less than 15% variation between duplicates. […]"}},
  "note": "Where two headings read alike, the source gives them in different places.",
  "data": [
    {"smiles": "CCCCCCCC/C=C\\CCCCCCCC(=O)O[C@H]1CC[C@@]2(C)C(=CC[C@H]3[C@@H]4CC[C@H]([C@H](C)CCCC(C)C)[C@@]4(C)CC[C@@H]32)C1", "note": "[Cholesterol ester, cholesteryl oleate]", "values": [
      {"measurement": "uptake by IEC-6 cells", "setting": "IEC-6 cells [1]", "value": "poorly absorbed"}
    ]},
    {"smiles": "CC(C)CCC[C@@H](C)[C@H]1CC[C@H]2[C@@H]3CC=C4C[C@@H](O)CC[C@]4(C)[C@H]3CC[C@]12C", "note": "[cholesterol]", "values": [
      {"measurement": "total uptake into the homogenate, % of added steroid", "setting": "[2]; rat, in vivo, 10 min", "value": 16, "unit": "%"},
      {"measurement": "uptake by IEC-6 cells", "setting": "IEC-6 cells [1]", "value": "linear for at least an hour"}
    ]},
    {"smiles": "c1ccc([C@H]2CN3CCSC3=N2)cc1", "note": "[levamisole, 2,3,5,6-tetrahydro-6-phenylimidazo-[2,1-b]thiazole]", "values": [
      {"measurement": "subcellular location of 3H-cholesterol label", "setting": "IEC-6 cells [3]", "value": "majority of the label was found in the plasma membrane fraction (P)"},
      {"measurement": "alkaline phosphatase activity inhibition (mode)", "setting": "alkaline phosphatase", "value": "competitively inhibited"},
      {"measurement": "effect of increasing drug concentration on cholesterol uptake", "setting": "IEC-6 cells [4]", "value": "did not result in complete inhibition of uptake"},
      {"measurement": "cholesterol uptake inhibited", "setting": "IEC-6 cells [4]; maximal inhibition", "value": "Approximately 50%"}
    ]},
    {"smiles": "CC[C@H](CC[C@@H](C)[C@H]1CC[C@H]2[C@@H]3CC=C4C[C@@H](O)CC[C@]4(C)[C@H]3CC[C@]12C)C(C)C", "note": "[sitosterol]", "values": [
      {"measurement": "total uptake into the homogenate, % of added steroid", "setting": "[2]; rat isolated duodenum, micelles with TDC and DMPC, ten minutes incubation", "value": 2, "unit": "%"},
      {"measurement": "uptake by IEC-6 cells", "setting": "IEC-6 cells [1]; 37° C., TDC-DMPC micelles, FIG. 1, cholesterol ester without added pancreatic cholesterol esterase", "value": "incorporated much less efficiently"}
    ]}
  ]
}
